The values that follow are results of earlier work, collected in publication PMC7855644 (Journal of pharmaceutical sciences, 2020).

Where no end group is shown, it is not given here.

The data set has as its system blood brain barrier.

With TFFYGGSRGRRNNFRTEEY-NH2 [Peptide A7], the In vivo transcytosis entry is reported as “lack of in vivo transcytosis”.
